In patent US20190353644A1, “PROFILE ANALYSIS OF CELL POLARITY” (Wake Forest University Health Sciences, priority 2018, published 2019):

What was measured:
[1] = system: mammary epithelial cell line stably expressing GFP-ZO-1; experiment: Live cell imaging of GFP-ZO-1 mammary epithelial cell line; format: cell-based; settings: leptin treatment
Excerpt: Immunostaining techniques have certain limitations, including (1) time consumption, (2) costs of reagents, and (3) poor time resolution. An alternative approach has been developed based on live cell imaging. Immunostaining for polarity markers is replaced by expression of polarity marker proteins tagged with a fluorescent protein (e.g., GFP-ZO-1). A mammary epithelial cell line stably expressing GFP-ZO-1 has been generated and characterized (FIGS. 9A-9B). The cell line retains apical-basal polarity (which is disturbed by leptin treatment) and expresses the recombinant marker at physiological levels. As a more flexible alternative to genetically encoded fluorescent markers of polarity, a nontoxic actin dye compatible with live cell imaging (SiR-actin) has been used. Cells are stained for 1 h with a mix of SiR-actin and Hoechst (DNA dye) before imaging. Similar results were obtained with this approach compared to the fixed, immunostaining approach described in EXAMPLE 1.

[2] = system: HMT-3522 S1 mammary epithelial cells acini; experiment: Visual scoring of apical polarity markers in 3D acini cultures (conventional methods); format: cell-based; settings: elevated levels of leptin; measured with conventional methods (Tenvooren et al.)
Excerpt: Non-neoplastic HMT-3522 S1 mammary epithelial cells were obtained from Dr. Mina Bissell (Lawrence Berkeley Laboratory) and propagated between passages 54 and 60 in H14 medium. Acinar differentiation was achieved by culturing the cells in 3D on top of a layer of Matrigel matrix (Corning) in chambered slides (Millipore), as described (10).
Fluorescent signals of polarity markers in 3D cell cultures were scored visually for apical localization using an Olympus IX83 epifluorescence microscope equipped with a 60× oil immersion objective (NA=1.35). At least 100 acini were scored per condition in each experiment. Alternatively, fluorescence images were taken with the CMOS camera (Hamamatsu, ORCA-Flash4.0) on this microscope, using a 10× (NA=0.3) objective. The ImageJ script was used to extract acini from DAPI images and to calculate the radial distribution of the signals. 150-450 acini were analyzed per condition.

[3] = system: HMT-3522 S1 mammary epithelial cells acini; experiment: Radial profile (RP) analysis of ZO-1 distribution in acini; format: cell-based
Description: The concept of radial profile (RP) analysis of epithelial polarity was tested. A macro script and two plugins for the open image analysis software ImageJ (imagej.nih.gov/ij/) were developed. Subsequently, computer code was translated for the MATLAB® computing platform and improvements were made. This new code is referred to as the RadialProfiler algorithm. MATLAB® is a more robust and versatile computing platform that allows important improvement to the approach. In particular, MATLAB® can easily process entire image folders in batch using looping functions. Batch processing has been included in the new MATLAB® version of the RP analysis that enables automated analyses of series of images. The code was designed to analyze two-channel fluorescence microscopy images. The first channel corresponds to DAPI staining of cell nuclei, whereas the second channel corresponds to an apical polarity marker (e.g., ZO-1, Par3, or actin) detected by immunofluorescence. […] Initially, two plugins were developed to compare two approaches to quantify apical polarity: (1) an analysis of the RP distribution of the signals and (2) the computation of the moment of inertia (MOI). […]
Fluorescent signals of polarity markers in 3D cell cultures were scored visually for apical localization using an Olympus IX83 epifluorescence microscope equipped with a 60× oil immersion objective (NA=1.35). […]

live S1 cell acini = experiment: Live cell imaging of acini stained with SiR-actin; format: cell-based; settings: leptin treatment as in EXAMPLE 3
Excerpt: RadialProfiler can be applied to quantify epithelial markers detected by immunofluorescence (as described in Tenvooren et al., Oncogene (2019)), or to quantify cortical actin labeled in live acini with the SiR-actin dye (Cytoskeleton Inc.). DAPI and Hoechst are used to counterstain cell nuclei in fixed and live experiments, respectively.
For imaging, an automated IX83 microscope (Olympus) equipped with a motorized ultrasonic stage and a TruFocus Z drift compensation module was used. For RadialProfiler analyses, images are taken with either 10× (NA=0.3) or 20× (NA=0.45) air lenses, using a sCMOS camera (ORCA-Flash4.0, Hamamatsu). The RadialProfiler software was also tested with images acquired using different imaging systems, including a high content imager (Perkin Elmer Operetta CLS). RadialProfiler and the underlying approach to analyze polarity are agnostic to the imaging system. Fields of view are chosen either in an automated fashion or based on nuclear signals (DAPI or Hoechst) to avoid bias. For live cell analyses, acini are maintained at 37° C. and 5% CO2 using a stage-top incubator (Tokai Hit). The minimal resolution needed depends on the number of radial terraces used by RadialProfiler. […] It was determined that using 5-10 bins that are 2 pixels wide yields accurate measurements. […]

apical polarity = settings: Yue et al., Biophys. J. 102:1215 (2012); cited from earlier work

Substance: leptin
- apical-basal polarity of GFP-ZO-1 cell line [1]: disturbed
- apical polarity [2]: loss of apical polarity
- averaged RP curves and integrated values (ZO-1 radial distribution) ([3]; acini treated 72 h with vehicle or leptin (100 ng/ml), FIG. 8C, P<0.0001): distinct for the two treatments
- apical SiR-actin signal (live S1 cell acini): loss of apical SiR-actin signal

Substance: lipopolysaccharide [LPS, reference compound]
- polarity score ([3]; breast acini exposed to LPS, FIG. 8F): decrease in the polarity score

Substance: omega-6 fatty acids
- apical polarity (apical polarity): disrupted
